The values that follow come from US10421769B2, “Anticancer property studies of chiral palladium N-heterocyclic carbene complexes and process for preparation thereof” (Indian Institute of Technology Bombay, priority 2017, dated 2019).

What is called IC50 is the concentration needed to halve the response being measured.

Like-named read-outs stand apart in the source and are kept apart here.

The subject of assay [1] is MCF-7 cells. In words: Sulforhodamine B assay, proliferation of MCF-7 cells. The class given is cell-based, human. The note with it: MCF-7 breast cancer cells, one cell cycle (48 h), SRB. The method, then:
(§1) The present invention further provides a Sulforhodamine B assay method for investigating the anti-cancer efficacies of the compounds of the present Pd—NHC series on MCF-7, HeLa, A549, B16-F10 and EMT6/AR1 cancer cell lines and also for a comparative study on normal skin cell line L929 and normal epithelial breast cells MCF10A. The said Sulforhodamine B assay is conducted as per reported method (Skehan et al., J. Natl. Cancer Inst. 1990, 82, 1107).
(§2) Experiment: The anti-proliferative activity of the present palladium N-heterocyclic carbene complexes on two different cancer cell lines MCF-7 and HeLa is tested using Sulforhodamine B assay to reveal their anti-tumor properties. The evaluation of growth inhibition of these complexes is done from their IC50 values for the inhibition of cell growth. The IC50 values are compared with Cisplatin to determine any increase in efficacy.
Method: The effects of present series of palladium N-heterocyclic carbene complexes, such as compounds (1S,2S,5R)-(1-3)b and (1R,2R,5S)-(1-3)b; (1S,2S,5R)-(1, 3)c and (1R,2R,5S)-(1, 3)c on the proliferation of MCF-7 cells after one cell cycle are determined by Sulforhodamine B assay. In particular, 1×10^5 cells/mL are seeded in each well in 96-well plates for 24 h and then incubated without or with different concentrations of these complexes at 37° C. for one cell cycle (48 h). After incubation of cells with the complexes for one cell cycle, cell growth is stopped by the addition of 50% trichloroacetic acid and stained with 0.4% sulforhodamine B dissolved in 1% acetic acid. Unbound dye is removed by washing with 1% acetic acid, and the protein content is determined by measuring absorbance at 520 nm in a Bio-Rad model 680 microplate reader after extracting with 10 mM tris base. IC50 value is calculated as the concentration of the complex that inhibited the proliferation of cells by 50% relative to the untreated control cells. The anticancer activities of the present Pd—NHC compounds are graphically represented in accompanying FIG. 1.
(§3) The data obtained is graphically represented in accompanying FIG. 2.
A general note: Sulforhodamine B stains cellular protein and so reports cell mass.

The subject of the next assay is HCT 116 cell lines. The settings on record: HCT 116, MTT, 72 hours, Haque et al. Metallomics 2013; read-out: HCT-116 (IC50 value), prior art (b); cited from earlier work.
Assay [2] concerns HeLa cells. In words: Sulforhodamine B assay, proliferation of HeLa cells. It is filed as cell-based, human. The settings on record: HeLa cervical cancer cells, 24 h, SRB. The procedure:
as §1, §2
The seeded cells in 96-well plates are incubated with the complex for 24 h and the assay is performed.
as §3

Assay [3] has as its system intracellular ROS in MCF-7 cells. In words: Reactive oxygen species (ROS) assay using H2DCFDA, flow cytometry. It is filed as cell-based, human. The settings on record: MCF-7, 30 μM, 24 h, positive control. The method, then: Experiment: Reactive oxygen species (ROS) production in cells when treated with (1R,2R,5S)-1c, was estimated by ROS assay using 2′,7′-dichlorodihydrofluorescein diacetate (H2DCFDA). MCF-7 cells (5 mL) were seeded in 60 mm cell culture dishes at a density of 1.5×10^5 cells/mL. After cell attachment, they were incubated with 4 and 8 μM (1R,2R,5S)-1c for 24 h. Cells treated with 30 μM hydrogen peroxide was used as a positive control. Following 24 h of incubation, the cells were processed and analyzed using flow cytometry. The percentage of DCFH-DA positive MCF-7 cells in the absence and presence 4 and 8 μM (1R,2R,5S)-1c was determined by flow cytometry. 30 μM H2O2 was used as a positive control. Data are average of three independent set of experiments and ±indicates S.D.

Assay [4] concerns MCF-7 cells. In words: Live dead assay by flow cytometry using propidium iodide. The class given is cell-based, human. The settings on record: MCF-7, 4 μM, 48 h. The method, then: MCF-7 cells (5 mL) were seeded in 60 mm cell culture dishes at a density of 1.5×10^5 cells/mL. Cells were incubated with 4 and 8 μM (1R,2R,5S)-1c for 48 h for live dead assay. After the required incubation, cells were processed and analyzed by flow cytometry. Percentage of live and dead MCF-7 cells in the absence and presence of 4 and 8 μM (1R,2R,5S)-1c and 4 μM cisplatin was determined by flow cytometry using propidium iodide (PI).

Assay [5] relates to HeLa cells. The note with it: one cell cycle, SRB, Ghosh et al. JACS 2007, read-out: HeLa (IC50 value), prior art (a); cited from earlier work.
For assay [6], the system named is MCF-7 cells. The note with it: MCF-7, one cell cycle, SRB, Ghosh et al. JACS 2007; read-out: MCF-7 (IC50 value), prior art (a); cited from earlier work.
The next assay has as its system HCT 116 cells. The note with it: HCT 116, one cell cycle, SRB, Ghosh et al. JACS 2007; read-out: HCT-116 (IC50 value), prior art (a); cited from earlier work.

As for “trans-[1-(1S)-menthyl-4-(allyl)-1,2,4-triazol-5-ylidene]2PdBr2 [(1S,2S,5R)-2b]”, in the assay on MCF-7 cells [1] (read-out: IC50 (μM), MCF-7), the IC50 is roughly 10 µM.
For the molecule `C=CCN1C=CN(CCCC)[CH]1[Pd]([Cl])([Cl])[CH]1N(CC=C)C=CN1CCCC` (stereo not shown) [Compound 8], in the assay on HCT 116 cell lines, the half-maximal inhibitory concentration (IC50) is 26.5 µM.
Consider “trans-[1-(1S)-menthyl-4-(benzyl)-1,2,4-triazol-5-ylidene]2Pd(OCOCF3)2 [(1S,2S,5R)-3c]”, for which the concentration for half-maximal inhibition (IC50) in the assay on MCF-7 cells [1] (read-out: IC50 (μM), MCF-7) was greater than 10 µM.
“trans-[1-(1R)-menthyl-4-(benzyl)-1,2,4-triazol-5-ylidene]2PdBr2 [(1R,2R,5S)-3b]”: the IC50 in the assay on MCF-7 cells [1] (read-out: IC50 (μM), MCF-7) was greater than 10 µM.
On the same count and under the same terms, the figure for “trans-[1-(1S)-menthyl-4-(ethyl)-1,2,4-triazol-5-ylidene]2PdBr2 [(1S,2S,5R)-1b]” is 2.2 ± 0.1 µM; for “trans-[1-(1R)-menthyl-4-(benzyl)-1,2,4-triazol-5-ylidene]2Pd(OCOCF3)2 [(1R,2R,5S)-3c]” it is greater than 10 µM.
As for “trans-[1-(1S)-menthyl-4-(ethyl)-1,2,4-triazol-5-ylidene]2Pd(OCOCF3)2 [(1S,2S,5R)-1c]”, the concentration for half-maximal inhibition (IC50) came to 2.6 ± 1.6 µM with HeLa cells [2] (listed as drawing 40); 2.6 ± 1.6 µM in the assay on HeLa cells [2] (listed as drawing 47); 0.7 ± 0.005 µM in the assay on MCF-7 cells [1] (read-out: IC50 (μM), MCF-7); 0.7 ± 0.005 µM in the assay on MCF-7 cells [1] (unit nM printed in cell or sentence, read-out: IC50, MCF-7 (values given in nM)).
With “trans-[1-(1S)-menthyl-4-(benzyl)-1,2,4-triazol-5-ylidene]2PdBr2 [(1S,2S,5R)-3b]”, the IC50 with MCF-7 cells [1] (read-out: IC50 (μM), MCF-7) was greater than 10 µM.
On to `OO` [Compound H2O2, hydrogen peroxide, reference compound], for which the “% of DCFH-DA positive cells” value in assay [3] is 72 ± 4%.
Molecule `N.N.[Cl][Pt][Cl]` [cisplatin, cis-diammine-dichloroplatinum (II), reference compound] gave a Dead % in the assay on MCF-7 cells [4] of 8 ± 2%. For the same molecule, the Live % in the assay on MCF-7 cells [4] turned out to be 93 ± 4%. Besides, the concentration for half-maximal inhibition (IC50) was 8 µM in the assay on HeLa cells [5]; 15 µM in the assay with MCF-7 cells [6]; 8.5 ± 0.7 µM in the assay with HeLa cells [2]; 14.9 ± 0.4 µM with MCF-7 cells [1] (read-out: IC50 (μM), MCF-7); 16 µM in the assay on HCT 116 cells.
“trans-[1-(1R)-menthyl-4-(allyl)-1,2,4-triazol-5-ylidene]2PdBr2 [(1R,2R,5S)-2b]”: the IC50 in the assay with MCF-7 cells [1] (read-out: IC50 (μM), MCF-7) is roughly 10 µM.
With “trans-[1-(1R)-menthyl-4-(ethyl)-1,2,4-triazol-5-ylidene]2PdBr2 [(1R,2R,5S)-1b]”, the 50% inhibitory concentration (IC50) in the assay on MCF-7 cells [1] (read-out: IC50 (μM), MCF-7) is 2.3 ± 1 µM.
With `CCCCN1C=CN(Cc2ccccc2)[CH]1[Pd]([Cl])([Cl])[CH]1N(CCCC)C=CN1Cc1ccccc1` (stereo not shown) [Compound 9], the IC50 with HCT 116 cell lines is 6.6 µM.
